# Data published in ChEMBL document CHEMBL5338823, “Discovery of Novel 5,6-Dihydro-1,2,4-triazine Derivatives as Efficacious Glucagon-Like Peptide-1 Receptor Agonists” (J Med Chem, 2023).
# Experiments:
# [1] = target: Glucagon-like peptide 1 receptor (Homo sapiens, UniProt P43220); assay: Agonist activity at N-terminal HA-tagged human GLP-1R expressed in HEK293 cells assessed as effect on intracellular cAMP accumulation incubated for 30 mins by LANCA ultra cAMP assay; format: functional, cell-based
# Chain of Glucagon-like peptide 1 receptor (P43220 whole entry): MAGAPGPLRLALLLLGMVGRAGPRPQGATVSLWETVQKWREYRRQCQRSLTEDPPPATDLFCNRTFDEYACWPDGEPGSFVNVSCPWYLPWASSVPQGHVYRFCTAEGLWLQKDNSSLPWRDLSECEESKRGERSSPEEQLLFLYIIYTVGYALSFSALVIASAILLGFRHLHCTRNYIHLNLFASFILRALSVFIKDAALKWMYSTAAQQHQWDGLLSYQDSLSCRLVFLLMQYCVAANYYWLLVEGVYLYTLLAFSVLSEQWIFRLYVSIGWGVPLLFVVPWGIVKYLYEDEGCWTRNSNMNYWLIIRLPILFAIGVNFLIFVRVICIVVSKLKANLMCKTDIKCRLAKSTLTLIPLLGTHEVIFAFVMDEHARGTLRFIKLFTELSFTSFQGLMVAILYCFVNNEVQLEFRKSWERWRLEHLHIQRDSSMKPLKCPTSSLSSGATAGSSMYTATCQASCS
# [2] = Stability in human liver microsomes assessed as half-life at 1 uM measured upto 60 mins in the presence of NADPH by LC-MS/MS analysis; format: ADME, Microsome
# [3] = Stability in mouse liver microsomes assessed as half-life at 1 uM measured upto 60 mins in the presence of NADPH by LC-MS/MS analysis; format: ADME, Microsome
# [4] = Stability in rat liver microsomes assessed as half-life at 1 uM measured upto 60 mins in the presence of NADPH by LC-MS/MS analysis; format: ADME, Microsome
# hERG (KCNH2) = hERG (KCNH2) (Homo sapiens, UniProt Q12809); assay: Inhibition of hERG at 40 uM relative to control
# Chain of hERG (KCNH2) (Q12809 whole entry): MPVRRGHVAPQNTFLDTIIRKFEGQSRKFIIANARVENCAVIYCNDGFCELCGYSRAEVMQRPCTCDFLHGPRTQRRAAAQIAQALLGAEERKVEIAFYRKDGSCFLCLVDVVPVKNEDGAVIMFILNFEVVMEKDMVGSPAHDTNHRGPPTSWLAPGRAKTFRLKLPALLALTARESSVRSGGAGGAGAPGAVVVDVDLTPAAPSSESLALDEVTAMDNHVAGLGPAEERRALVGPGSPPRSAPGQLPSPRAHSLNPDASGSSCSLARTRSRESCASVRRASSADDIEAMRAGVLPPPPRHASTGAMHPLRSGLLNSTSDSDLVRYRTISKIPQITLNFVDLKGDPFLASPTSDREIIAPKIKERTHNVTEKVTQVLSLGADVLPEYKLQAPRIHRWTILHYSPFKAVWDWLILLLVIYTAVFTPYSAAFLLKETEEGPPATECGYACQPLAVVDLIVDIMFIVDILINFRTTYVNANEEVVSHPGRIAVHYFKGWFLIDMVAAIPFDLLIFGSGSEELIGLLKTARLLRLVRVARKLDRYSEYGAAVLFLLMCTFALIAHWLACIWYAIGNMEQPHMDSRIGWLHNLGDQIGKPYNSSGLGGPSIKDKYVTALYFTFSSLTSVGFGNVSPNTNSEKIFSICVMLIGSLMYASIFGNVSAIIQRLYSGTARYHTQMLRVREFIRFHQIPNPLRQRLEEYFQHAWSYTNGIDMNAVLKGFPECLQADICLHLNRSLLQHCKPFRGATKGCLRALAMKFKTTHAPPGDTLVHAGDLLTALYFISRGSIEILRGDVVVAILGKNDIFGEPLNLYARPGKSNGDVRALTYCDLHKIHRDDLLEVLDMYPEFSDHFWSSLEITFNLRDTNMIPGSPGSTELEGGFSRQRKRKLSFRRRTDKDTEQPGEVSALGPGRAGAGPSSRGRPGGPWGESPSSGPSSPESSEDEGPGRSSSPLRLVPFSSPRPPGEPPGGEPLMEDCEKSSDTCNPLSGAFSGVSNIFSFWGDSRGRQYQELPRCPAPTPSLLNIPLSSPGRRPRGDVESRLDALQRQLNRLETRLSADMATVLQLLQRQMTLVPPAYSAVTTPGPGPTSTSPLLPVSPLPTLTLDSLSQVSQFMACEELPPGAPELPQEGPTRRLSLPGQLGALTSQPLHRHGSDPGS
# [5] = Stability in rat liver microsomes assessed as intrinsic clearance at 1 uM measured upto 60 mins in the presence of NADPH by LC-MS/MS analysis; format: ADME, Microsome; conditions: 1 h
# [6] = Stability in mouse liver microsomes assessed as intrinsic clearance at 1 uM measured upto 60 mins in the presence of NADPH by LC-MS/MS analysis; format: ADME, Microsome; conditions: 1 h
# [7] = Stability in human liver microsomes assessed as intrinsic clearance at 1 uM measured upto 60 mins in the presence of NADPH by LC-MS/MS analysis; format: ADME, Microsome; conditions: 1 h
# [8] = target: Voltage-gated inwardly rectifying potassium channel KCNH2 (Homo sapiens, UniProt Q12809); assay: Inhibition of hERG
# Chain of Voltage-gated inwardly rectifying potassium channel KCNH2 (Q12809 whole entry): as above
SMILES,EC50 [1],half-life at 1 µM [2],half-life at 1 µM [3],half-life at 1 µM [4],inhibition at 40 µM (hERG (KCNH2)),CLH [5],CLH [6],CLH [7],IC50 [8]
N#Cc1ccc(COc2cccc(N3CC4(CC3=O)CN(Cc3nc5ccc(C(=O)O)cc5n3C[C@@H]3CCO3)C4)n2)c(F)c1,> 10 µM,,,,,,,,
N#Cc1ccc(COc2cccc(N3CCC4(CN(Cc5nc6ccc(C(=O)O)cc6n5C[C@@H]5CCO5)C4)C3)n2)c(F)c1,5.01 µM,,,,,,,,
N#Cc1ccc(COc2cccc(N3C=NN(Cc4nc5c(F)cc(C(=O)O)cc5n4C[C@@H]4CCO4)CC3)n2)c2occc12,,2.48 h,2.07 h,1.05 h,30%,33 mL/min/g,17 mL/min/g,14 mL/min/g,> 40 µM
N#Cc1ccc(COc2cccc(N3C[C@H]4CN(Cc5nc6ccc(C(=O)O)cc6n5C[C@@H]5CCO5)C[C@H]4C3)n2)c(F)c1,> 10 µM,,,,,,,,
O=C(O)c1ccc2nc(Cn3ccc(-c4cccc(OCc5ccc(Cl)cc5F)n4)nc3=O)n(C[C@@H]3CCO3)c2c1,> 10 µM,,,,,,,,
O=C(O)c1cc(F)c2nc(CN3CCN(c4cccc(OCc5ccc(Cl)c6c5OCC6)n4)C=N3)n(C[C@@H]3CCO3)c2c1,,1.5 h,0.517 h,0.6 h,51%,59 mL/min/g,67 mL/min/g,23 mL/min/g,0.05 µM
N#Cc1ccc(COc2cccc(N3CCC(NCc4nc5ccc(C(=O)O)cc5n4C[C@@H]4CCO4)CC3)n2)c(F)c1,0.153 µM,,,,,,,,
COc1cc(Cl)ccc1COc1cccc(N2C=NN(Cc3nc4c(F)cc(C(=O)O)cc4n3C[C@@H]3CCO3)CC2)n1,,1.67 h,0.717 h,0.783 h,44%,45 mL/min/g,49 mL/min/g,21 mL/min/g,> 40 µM
